Source: PubChem BioAssay (NCI)
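Protocol summary: plate cells (96-well), add compound at 5 concentrations, incubate 48 h, interpolate endpoints linearly. GI50: concentration for 50% inhibition of growth. TGI denotes the concentration required for complete inhibition of growth.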

Columns and labels:
Assay in all cases: growth of human tumour cells (NCI), 48 h
SW-620 colon = test system: SW-620 colon
SF-268 CNS = test system: SF-268 CNS
MDA-MB-231 breast = test system: MDA-MB-231 breast
OVCAR-8 ovarian = test system: OVCAR-8 ovarian
MALME-3M melanoma = test system: MALME-3M melanoma
HCT-116 colon = test system: HCT-116 colon
UACC-62 melanoma = test system: UACC-62 melanoma
DU-145 prostate = test system: DU-145 prostate
SK-MEL-28 melanoma = test system: SK-MEL-28 melanoma
SK-MEL-5 melanoma = test system: SK-MEL-5 melanoma
SN12C renal = test system: SN12C renal
HCT-15 colon = test system: HCT-15 colon
HOP-92 NSCLC = test system: HOP-92 NSCLC
SK-OV-3 ovarian = test system: SK-OV-3 ovarian
HS 578T breast = test system: HS 578T breast
786-0 renal = test system: 786-0 renal
HT29 colon = test system: HT29 colon
OVCAR-5 ovarian = test system: OVCAR-5 ovarian
A498 renal = test system: A498 renal
M14 melanoma = test system: M14 melanoma
CCRF-CEM leukemia = test system: CCRF-CEM leukemia
MDA-MB-435 = test system: MDA-MB-435
ACHN renal = test system: ACHN renal
T-47D breast = test system: T-47D breast
OVCAR-4 ovarian = test system: OVCAR-4 ovarian
RXF 393 renal = test system: RXF 393 renal
UO-31 renal = test system: UO-31 renal
SK-MEL-2 melanoma = test system: SK-MEL-2 melanoma
RPMI-8226 leukemia = test system: RPMI-8226 leukemia
SR leukemia = test system: SR leukemia
K-562 leukemia = test system: K-562 leukemia
HCC-2998 colon = test system: HCC-2998 colon
HOP-62 NSCLC = test system: HOP-62 NSCLC
IGROV1 ovarian = test system: IGROV1 ovarian
NCI/ADR-RES ovarian = test system: NCI/ADR-RES ovarian
NCI-H460 lung = test system: NCI-H460 lung
SNB-19 CNS = test system: SNB-19 CNS
NCI-H226 lung = test system: NCI-H226 lung
MOLT-4 leukemia = test system: MOLT-4 leukemia
EKVX NSCLC = test system: EKVX NSCLC
BT-549 breast = test system: BT-549 breast
SNB-75 CNS = test system: SNB-75 CNS
CAKI-1 renal = test system: CAKI-1 renal
MDA-MB-468 breast = test system: MDA-MB-468 breast
HL-60(TB) leukemia = test system: HL-60(TB) leukemia
KM12 colon = test system: KM12 colon
MCF7 breast = test system: MCF7 breast
UACC-257 melanoma = test system: UACC-257 melanoma
TK-10 renal = test system: TK-10 renal
COLO 205 colon = test system: COLO 205 colon
PC-3 prostate = test system: PC-3 prostate
LOX IMVI melanoma = test system: LOX IMVI melanoma
SF-295 CNS = test system: SF-295 CNS
NCI-H23 lung = test system: NCI-H23 lung
A549 NSCLC = test system: A549 NSCLC
OVCAR-3 ovarian = test system: OVCAR-3 ovarian
NCI-H522 lung = test system: NCI-H522 lung
U251 CNS = test system: U251 CNS
SF-539 CNS = test system: SF-539 CNS

For CCC(C)S(=O)(=O)c1oc(-c2ccc(C)cc2)nc1S(=O)(=O)c1ccccc1 (stereo not drawn), the GI50 (SW-620 colon) was 1.13 µM, the TGI (SW-620 colon) was 2.47 µM and the GI50 (SF-268 CNS) was 2.65 µM. The TGI (SF-268 CNS) was 8.81 µM, the GI50 (MDA-MB-231 breast) was 1.66 µM and the TGI (MDA-MB-231 breast) was 3.15 µM. The GI50 (OVCAR-8 ovarian) was 3.09 µM, the TGI (OVCAR-8 ovarian) was 10.7 µM and the GI50 (MALME-3M melanoma) was 1.65 µM. For the same compound, the TGI (MALME-3M melanoma) was 3.03 µM, the GI50 (HCT-116 colon) was 1.52 µM and the TGI (HCT-116 colon) was 3.62 µM. For the same compound, the GI50 (UACC-62 melanoma) was 1.76 µM, the TGI (UACC-62 melanoma) was 3.75 µM and the GI50 (DU-145 prostate) was 1.98 µM. It also gave a TGI (DU-145 prostate) of 4.57 µM, a GI50 (SK-MEL-28 melanoma) of 1.71 µM and a TGI (SK-MEL-28 melanoma) of 3.14 µM. The GI50 (SK-MEL-5 melanoma) was 2.99 µM, the TGI (SK-MEL-5 melanoma) was 11.6 µM and the GI50 (SN12C renal) was 1.72 µM. For the same compound, the TGI (SN12C renal) was 3.34 µM, the GI50 (HCT-15 colon) was 1.45 µM and the TGI (HCT-15 colon) was 3.18 µM. For the same compound, the GI50 (HOP-92 NSCLC) was 2.27 µM, the TGI (HOP-92 NSCLC) was 6.37 µM and the GI50 (SK-OV-3 ovarian) was 17.2 µM. It also gave a TGI (SK-OV-3 ovarian) of 33.3 µM, a GI50 (HS 578T breast) of 2.18 µM and a TGI (HS 578T breast) of 7.36 µM. The GI50 (786-0 renal) was 1.67 µM, the TGI (786-0 renal) was 3.37 µM and the GI50 (HT29 colon) was 2.04 µM. The TGI (HT29 colon) was 4.86 µM, the GI50 (OVCAR-5 ovarian) was 2.83 µM and the TGI (OVCAR-5 ovarian) was 9.59 µM. For the same compound, the GI50 (A498 renal) was 16.9 µM, the TGI (A498 renal) was 30.7 µM and the GI50 (M14 melanoma) was 1.73 µM. The TGI (M14 melanoma) was 3.83 µM, the GI50 (CCRF-CEM leukemia) was 0.287 µM and the TGI (CCRF-CEM leukemia) was 1.33 µM. The GI50 (MDA-MB-435) was 1.74 µM, the TGI (MDA-MB-435) was 3.85 µM and the GI50 (ACHN renal) was 1.65 µM. It also gave a TGI (ACHN renal) of 3.01 µM, a GI50 (T-47D breast) of 1.87 µM and a TGI (T-47D breast) of 4.41 µM. The GI50 (OVCAR-4 ovarian) was 2.67 µM, the TGI (OVCAR-4 ovarian) was 7.84 µM and the GI50 (RXF 393 renal) was 1.48 µM. For the same compound, the TGI (RXF 393 renal) was 3.1 µM, the GI50 (UO-31 renal) was 1.52 µM and the TGI (UO-31 renal) was 2.85 µM. It also gave a GI50 (SK-MEL-2 melanoma) of 4.1 µM, a TGI (SK-MEL-2 melanoma) of 16.2 µM and a GI50 (RPMI-8226 leukemia) of 2.16 µM. It also gave a TGI (RPMI-8226 leukemia) of 8.17 µM, a GI50 (SR leukemia) of 2.73 µM and a TGI (SR leukemia) greater than 100 µM. The GI50 (K-562 leukemia) was 1.38 µM, the TGI (K-562 leukemia) was greater than 100 µM and the GI50 (HCC-2998 colon) was 1.74 µM. The TGI (HCC-2998 colon) was 3.3 µM, the GI50 (HOP-62 NSCLC) was 15.8 µM and the TGI (HOP-62 NSCLC) was 33.2 µM. For the same compound, the GI50 (IGROV1 ovarian) was 1.96 µM, the TGI (IGROV1 ovarian) was 3.75 µM and the GI50 (NCI/ADR-RES ovarian) was 2.35 µM. The TGI (NCI/ADR-RES ovarian) was 5.7 µM, the GI50 (NCI-H460 lung) was 3.13 µM and the TGI (NCI-H460 lung) was 12.1 µM. It also gave a GI50 (SNB-19 CNS) of 12.9 µM, a TGI (SNB-19 CNS) of 25.5 µM and a GI50 (NCI-H226 lung) of 12.5 µM. For the same compound, the TGI (NCI-H226 lung) was 30.5 µM, the GI50 (MOLT-4 leukemia) was 1.45 µM and the TGI (MOLT-4 leukemia) was greater than 100 µM. It also gave a GI50 (EKVX NSCLC) of 1.98 µM, a TGI (EKVX NSCLC) of 4.21 µM and a GI50 (BT-549 breast) of 1.81 µM. The TGI (BT-549 breast) was 3.42 µM, the GI50 (SNB-75 CNS) was 3.86 µM and the TGI (SNB-75 CNS) was 17 µM. The GI50 (CAKI-1 renal) was 1.53 µM, the TGI (CAKI-1 renal) was 3.15 µM and the GI50 (MDA-MB-468 breast) was 1.43 µM. The TGI (MDA-MB-468 breast) was 2.99 µM, the GI50 (HL-60(TB) leukemia) was 1.6 µM and the TGI (HL-60(TB) leukemia) was 4.91 µM. It also gave a GI50 (KM12 colon) of 8.37 µM, a TGI (KM12 colon) of 23.4 µM and a GI50 (MCF7 breast) of 1.2 µM. For the same compound, the TGI (MCF7 breast) was 2.86 µM, the GI50 (UACC-257 melanoma) was 1.89 µM and the TGI (UACC-257 melanoma) was 4.24 µM. For the same compound, the GI50 (TK-10 renal) was 1.73 µM, the TGI (TK-10 renal) was 3.44 µM and the GI50 (COLO 205 colon) was 2.67 µM. For the same compound, the TGI (COLO 205 colon) was 6.02 µM, the GI50 (PC-3 prostate) was 3.14 µM and the TGI (PC-3 prostate) was 11.2 µM. It also gave a GI50 (LOX IMVI melanoma) of 1.23 µM, a TGI (LOX IMVI melanoma) of 2.58 µM and a GI50 (SF-295 CNS) of 11.3 µM. For the same compound, the TGI (SF-295 CNS) was 23.4 µM, the GI50 (NCI-H23 lung) was 1.76 µM and the TGI (NCI-H23 lung) was 3.55 µM. For the same compound, the GI50 (A549 NSCLC) was 13.5 µM, the TGI (A549 NSCLC) was 32.3 µM and the GI50 (OVCAR-3 ovarian) was 1.63 µM. For the same compound, the TGI (OVCAR-3 ovarian) was 3.23 µM, the GI50 (NCI-H522 lung) was 1.31 µM and the TGI (NCI-H522 lung) was 2.77 µM. The GI50 (U251 CNS) was 15.5 µM, the TGI (U251 CNS) was 31.2 µM and the GI50 (SF-539 CNS) was 1.67 µM. For the same compound, the TGI (SF-539 CNS) was 3.03 µM.
